Experimental data taken from patent US12565468B2, “Processes and intermediates for the preparations of Carboprost and Carboprost Tromethamine, and Carboprost Tromethamine prepared therefrom” (CHIROGATE INTERNATIONAL INC., priority 2021, dated 2026).

Columns and labels:
Type in all cases: physicochemical
[1] = Stability of Carboprost Tromethamine crystal on storage at 25° C./60% RH and 5° C. (HPLC purity and impurities)
From the text: (§1) The high melting point Carboprost Tromethamine Crystal is very stable at room temperature, even at higher temperature, so that the formation of degradation impurities can be effectively avoided.

[2] = Stability of Carboprost Tromethamine crystal at 80° C. (HPLC purity and impurities)
From the text: as §1

[3] = Hygroscopicity: water content by Karl Fischer titration after exposure to 99% RH at 25° C.
Procedure: On the other hand, the hygroscopicity of the high melting point Carboprost Tromethamine crystal prepared from Example 10 (Method A) and the low melting point Carboprost Tromethamine crystal prepared from Example 10 (Method B) was measured. The samples were placed in glass vial with 99% RH at 25° C. for 3 hours, and the water content of the samples were measured by Karl Fischer titration, as shown in Table 6.

SMILES: CCCCC[C@](C)(O)/C=C/[C@@H]1[C@@H](C/C=C\CCCC(=O)O)[C@@H](O)C[C@H]1O [Example 10 (Method A), 2-amino-2-(hydroxymethyl)propane-1,3-diol; (Z)-7-((1R,2R,3R,5S)-3,5-dihydroxy-2-((S,E)-3-hydroxy-3-methyloct-1-en-1-yl)cyclopentyl)hept-5-enoate]
- 15-epi ([1]; 5° C., 1 month): 0.28%
- Purity ([1]; 5° C., 1 month): 99.72%
- Total Impurities ([1]; 5° C., 1 month): 0.28%
- 15-epi ([1]; 5° C., 12 months): 0.25%
- Purity ([1]; 5° C., 12 months): 99.75%
- Total Impurities ([1]; 5° C., 12 months): 0.25%
- 15-epi ([1]; 5° C., 18 months): 0.25%
- Purity ([1]; 5° C., 18 months): 99.75%
- Total Impurities ([1]; 5° C., 18 months): 0.25%
- 15(R)-epimer ([1]; 25° C./60% RH, 1 month): 0.27%
- Purity ([1]; 25° C./60% RH, 1 month): 99.71%
- Total Impurities ([1]; 25° C./60% RH, 1 month): 0.29%
- 15(R)-epimer ([1]; 25° C./60% RH, 6 months): 0.25%
- Purity ([1]; 25° C./60% RH, 6 months): 99.75%
- Total Impurities ([1]; 25° C./60% RH, 6 months): 0.25%
- 15(R)-epimer ([1]; Control): 0.25%
- Purity ([1]; Control): 99.75%
- Total Impurities ([1]; Control): 0.25%
- Stability (in words) ([1]; at room temperature, even at higher temperature): very stable
- Stability (in words) ([1]; treated at 20° C. for 6 months, 5° C. for 18 months, and 80° C. for 3 days): very stable
- Stability (in words) ([1]; treated at 20° C. for 6 months, PC for 18 months, and 80° C. for 3 days): stable
- 15-epi ([2]; 80° C., 1 days): 0.20%
- Purity ([2]; 80° C., 1 days): 99.79%
- Total Impurities ([2]; 80° C., 1 days): 0.21%
- 15-epi ([2]; 80° C., 3 days): 0.21%
- Purity ([2]; 80° C., 3 days): 99.78%
- Total Impurities ([2]; 80° C., 3 days): 0.22%
- 15-epi ([2]; Control): 0.21%
- Purity ([2]; Control): 99.79%
- Total Impurities ([2]; Control): 0.21%
- Water Content (%) ([3]; 25° C./99% RH/1 h): 1.509%
- Water Content (%) ([3]; 25° C./99% RH/2 h): 3.354%
- Water Content (%) ([3]; 25° C./99% RH/3 h): 5.881%
- Rate of water absorption (in words) ([3]; 99% RH at 25° C. for 3 hours, compared to the low melting point crystal): relatively low rate of water absorption
- Water Content (%) ([3]; Original): 0.3657%

SMILES: CCCCC[C@](C)(O)/C=C/[C@@H]1[C@@H](C/C=C\CCCC(=O)O)[C@@H](O)C[C@H]1O [Example 10 (Method B), 2-amino-2-(hydroxymethyl)propane-1,3-diol; (Z)-7-((1R,2R,3R,5S)-3,5-dihydroxy-2-((S,E)-3-hydroxy-3-methyloct-1-en-1-yl)cyclopentyl)hept-5-enoate, reference compound]
- Water Content (%) ([3]; 25° C./99% RH/1 h): 2.236%
- Water Content (%) ([3]; 25° C./99% RH/2 h): 5.45%
- Water Content (%) ([3]; 25° C./99% RH/3 h): 7.513%
- Water Content (%) ([3]; Original): 0.3303%
